Test results from US6703237B2, “Methods and formulations for mediating adeno-associated virus (AAV) attachment and infection and methods for purifying AAV” (priority 1998, dated 2004).

Columns and labels:
[1] = tested on: rAd-LacZ; settings: Svensson and Persson 1984; cited from earlier work
[2] = tested on: rAAV-LacZ; settings: 20 mM EDTA; HeLa cells; MOI 2
Procedure: (§1) HeLa cells were infected with recombinant virus (rAd-LacZ [FIG. 11A], rAAV-LacZ [FIG. 11B]) at an MOI of 2 either in the presence or absence of divalent cation chelator EDTA (20 mM) as described in methods. 24 h post Ad infection, and 36 h post AAV infection, cells were fixed and stained for β-galactosidase activity (upper panel). Transduction has been quantitated in the lower panel as the percentage of HeLa cells transduced in the presence or absence of EDTA.
(§2) All infectivity and binding assays were done in suspension in a buffer determined to result in maximum cell viability, HEPES-buffered saline (HBS) containing 1% BSA (HBSB) (Sambrook et al., (1989) Molecular Cloning, A Laboratory Manual, (N. Ford et al., eds.), Cold Spring Harbor Laboratory Press, New York). Adherent cells were first detached with 10 mM EDTA followed by two washes in phosphate buffered saline (PBS) containing […] CaCl2 and 0.5 mM MgCl2 and one wash in HBS. To assess the effect of EDTA on AAV transduction, HeLa cells were incubated with recombinant virus at an MOI of 2 in HBS±20 mM EDTA for 1 hour at 4° C. After washing in HBS±EDTA to remove unbound virus, cells were resuspended in HBS±5 mM EDTA and placed at 37° C. for 30 minutes.

[3] = tested on: rAd-LacZ; settings: 20 mM EDTA; HeLa cells; MOI 2
Procedure: as §1, §2

SMILES: O=C(O)CN(CCN(CC(=O)O)CC(=O)O)CC(=O)O [EDTA, ethylenediaminetetraacetate]
- inhibition of Ad infection, previous published results [1]: 20-50%
- inhibition of AAV infection [2]: greater than 90%
- inhibition of recombinant Ad-LacZ transduction [3]: 40%
